Measurements: PMC7762994 (Viruses, 2020)
Where two headings read alike, the source gives them in different places.

Experiments:
[1] = target: T1, DNAJB11 (Homo sapiens, UniProt Q9UBS4); assay: TPP-TR in HAZV-infected SW13 cells
T1 sequence (Q9UBS4 23-358): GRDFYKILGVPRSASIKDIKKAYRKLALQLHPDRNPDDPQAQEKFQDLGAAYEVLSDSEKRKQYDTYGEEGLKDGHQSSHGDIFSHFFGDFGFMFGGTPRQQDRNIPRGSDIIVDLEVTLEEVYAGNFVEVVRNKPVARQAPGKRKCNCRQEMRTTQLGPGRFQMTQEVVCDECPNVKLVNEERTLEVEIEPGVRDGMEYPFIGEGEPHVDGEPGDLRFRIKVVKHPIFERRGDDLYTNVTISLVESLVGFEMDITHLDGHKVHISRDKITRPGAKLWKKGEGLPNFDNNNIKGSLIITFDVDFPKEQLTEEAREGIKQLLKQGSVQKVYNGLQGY

[2] = target: T2, CALR (Homo sapiens, UniProt P27797); assay: 2D-TPP in U87 cells; assay type: binding; conditions: 1.5 h, stabilized, read-out: pEC50 of protein stabilization, CALR (converted)
T2 construct: endogenous in cells; host or cells: U87 cells
T2 sequence (P27797 18-417): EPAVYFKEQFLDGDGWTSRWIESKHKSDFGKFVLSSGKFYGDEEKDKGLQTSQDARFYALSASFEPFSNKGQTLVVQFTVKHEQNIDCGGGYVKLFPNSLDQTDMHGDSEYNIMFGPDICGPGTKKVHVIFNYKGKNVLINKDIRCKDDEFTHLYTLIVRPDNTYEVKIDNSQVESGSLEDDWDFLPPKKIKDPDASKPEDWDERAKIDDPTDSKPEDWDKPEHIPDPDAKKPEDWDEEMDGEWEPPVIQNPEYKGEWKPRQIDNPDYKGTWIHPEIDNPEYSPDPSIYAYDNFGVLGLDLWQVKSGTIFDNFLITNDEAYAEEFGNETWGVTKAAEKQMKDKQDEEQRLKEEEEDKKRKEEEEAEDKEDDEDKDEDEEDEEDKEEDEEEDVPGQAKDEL

[3] = test system: Hazara virus (HAZV); assay: microbe, parasite or virus in culture; assay type: cell-based; conditions: Hazara virus
[4] = target: T3, DNAJC3 (Homo sapiens, UniProt Q13217); assay: TPP-TR in HAZV-infected SW13 cells; conditions: 20 μM, 4 h
T3 sequence (Q13217 32-504): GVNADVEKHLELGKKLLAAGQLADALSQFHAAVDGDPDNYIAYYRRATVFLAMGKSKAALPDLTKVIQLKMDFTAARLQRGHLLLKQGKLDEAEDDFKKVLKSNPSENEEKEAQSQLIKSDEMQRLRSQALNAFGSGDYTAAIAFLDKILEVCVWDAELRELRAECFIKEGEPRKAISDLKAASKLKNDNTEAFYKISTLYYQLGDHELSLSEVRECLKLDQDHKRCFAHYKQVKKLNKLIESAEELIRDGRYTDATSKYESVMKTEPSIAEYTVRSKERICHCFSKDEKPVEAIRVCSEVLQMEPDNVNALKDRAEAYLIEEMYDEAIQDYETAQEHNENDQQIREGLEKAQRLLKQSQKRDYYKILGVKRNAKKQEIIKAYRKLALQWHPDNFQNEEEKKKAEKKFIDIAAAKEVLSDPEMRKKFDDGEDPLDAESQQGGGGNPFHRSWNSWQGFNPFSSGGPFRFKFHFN

[5] = target: T4, host proteins (proteome-wide) (Homo sapiens, UniProt A0FGR8); assay: 2D-TPP in U87 cells (proteome-wide); assay type: binding
T4 sequence (A0FGR8 1-921): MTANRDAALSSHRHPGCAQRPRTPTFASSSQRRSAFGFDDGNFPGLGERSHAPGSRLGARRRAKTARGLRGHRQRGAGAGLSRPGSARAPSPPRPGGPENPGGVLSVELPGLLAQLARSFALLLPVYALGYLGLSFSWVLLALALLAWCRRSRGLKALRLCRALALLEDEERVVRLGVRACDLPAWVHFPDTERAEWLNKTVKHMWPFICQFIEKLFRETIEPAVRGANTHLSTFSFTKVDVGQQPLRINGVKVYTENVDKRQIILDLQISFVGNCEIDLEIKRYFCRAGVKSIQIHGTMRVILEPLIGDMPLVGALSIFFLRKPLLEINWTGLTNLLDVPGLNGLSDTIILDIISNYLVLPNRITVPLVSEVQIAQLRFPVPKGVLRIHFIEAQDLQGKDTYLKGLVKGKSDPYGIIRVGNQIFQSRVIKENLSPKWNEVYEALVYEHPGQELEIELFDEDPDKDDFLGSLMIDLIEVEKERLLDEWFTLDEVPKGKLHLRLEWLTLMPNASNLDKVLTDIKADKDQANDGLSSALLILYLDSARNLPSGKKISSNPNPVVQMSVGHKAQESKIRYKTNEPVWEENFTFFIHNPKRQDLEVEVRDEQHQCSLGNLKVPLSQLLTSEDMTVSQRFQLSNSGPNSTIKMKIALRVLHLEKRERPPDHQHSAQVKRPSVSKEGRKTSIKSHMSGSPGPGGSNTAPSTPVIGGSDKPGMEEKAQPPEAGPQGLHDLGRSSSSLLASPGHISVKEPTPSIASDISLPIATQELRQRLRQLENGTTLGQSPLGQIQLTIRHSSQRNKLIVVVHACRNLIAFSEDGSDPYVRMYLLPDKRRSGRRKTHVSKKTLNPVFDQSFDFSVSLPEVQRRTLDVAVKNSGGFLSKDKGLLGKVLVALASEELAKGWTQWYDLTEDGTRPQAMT

[6] = target: OGG1 (Homo sapiens, UniProt O15527); assay: Cellular thermal shift assay (CETSA), Western blot; assay type: binding; design: endogenous in cells; host or cells: SW13 or U87 cells
Chain of OGG1 (O15527 whole entry): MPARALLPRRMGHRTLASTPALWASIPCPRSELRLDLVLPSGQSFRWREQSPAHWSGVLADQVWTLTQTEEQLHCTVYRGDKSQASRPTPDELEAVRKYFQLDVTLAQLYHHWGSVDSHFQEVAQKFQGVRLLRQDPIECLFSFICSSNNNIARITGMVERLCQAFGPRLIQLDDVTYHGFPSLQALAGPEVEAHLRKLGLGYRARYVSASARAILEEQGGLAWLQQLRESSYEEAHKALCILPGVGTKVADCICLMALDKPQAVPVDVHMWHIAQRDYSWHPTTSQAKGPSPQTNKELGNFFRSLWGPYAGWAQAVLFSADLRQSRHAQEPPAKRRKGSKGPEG

[7] = test system: Hazara virus (HAZV); assay: microbe, parasite or virus in culture; assay type: cell-based; conditions: SW13, 24 h
[8] = test system: SW13 cells; assay: Viability of SW13 cells by nuclei count in the HAZV antiviral assay; assay type: cell-based; conditions: Homo sapiens; HAZV, SW13, MOI 1, 24 h; read-out: Viability (nuclei count) EC50
[9] = target: HSPA1A (Homo sapiens, UniProt P0DMV8); assay: 2D-TPP in U87 cells
Chain of HSPA1A (P0DMV8 whole entry): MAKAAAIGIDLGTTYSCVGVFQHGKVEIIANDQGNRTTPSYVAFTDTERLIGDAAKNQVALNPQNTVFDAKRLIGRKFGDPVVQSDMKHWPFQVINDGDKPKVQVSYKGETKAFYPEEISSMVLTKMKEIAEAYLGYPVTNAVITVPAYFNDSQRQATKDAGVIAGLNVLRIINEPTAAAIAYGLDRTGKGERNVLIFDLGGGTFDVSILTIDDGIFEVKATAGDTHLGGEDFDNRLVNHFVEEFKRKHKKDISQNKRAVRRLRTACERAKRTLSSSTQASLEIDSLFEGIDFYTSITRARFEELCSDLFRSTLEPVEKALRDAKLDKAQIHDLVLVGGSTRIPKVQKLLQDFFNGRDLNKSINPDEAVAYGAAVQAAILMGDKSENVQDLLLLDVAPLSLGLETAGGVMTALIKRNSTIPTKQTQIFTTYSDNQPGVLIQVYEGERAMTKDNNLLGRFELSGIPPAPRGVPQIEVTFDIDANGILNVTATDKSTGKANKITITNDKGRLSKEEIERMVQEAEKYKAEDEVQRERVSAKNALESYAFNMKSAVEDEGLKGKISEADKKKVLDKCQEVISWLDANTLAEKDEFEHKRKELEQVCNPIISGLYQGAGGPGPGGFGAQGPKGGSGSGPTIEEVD

[10] = target: T5, HSPA9 (Homo sapiens, UniProt P38646); assay: 2D-TPP in U87 cells; assay type: binding
T5 construct: endogenous in cells; host or cells: U87 cells
T5 sequence (P38646 47-679): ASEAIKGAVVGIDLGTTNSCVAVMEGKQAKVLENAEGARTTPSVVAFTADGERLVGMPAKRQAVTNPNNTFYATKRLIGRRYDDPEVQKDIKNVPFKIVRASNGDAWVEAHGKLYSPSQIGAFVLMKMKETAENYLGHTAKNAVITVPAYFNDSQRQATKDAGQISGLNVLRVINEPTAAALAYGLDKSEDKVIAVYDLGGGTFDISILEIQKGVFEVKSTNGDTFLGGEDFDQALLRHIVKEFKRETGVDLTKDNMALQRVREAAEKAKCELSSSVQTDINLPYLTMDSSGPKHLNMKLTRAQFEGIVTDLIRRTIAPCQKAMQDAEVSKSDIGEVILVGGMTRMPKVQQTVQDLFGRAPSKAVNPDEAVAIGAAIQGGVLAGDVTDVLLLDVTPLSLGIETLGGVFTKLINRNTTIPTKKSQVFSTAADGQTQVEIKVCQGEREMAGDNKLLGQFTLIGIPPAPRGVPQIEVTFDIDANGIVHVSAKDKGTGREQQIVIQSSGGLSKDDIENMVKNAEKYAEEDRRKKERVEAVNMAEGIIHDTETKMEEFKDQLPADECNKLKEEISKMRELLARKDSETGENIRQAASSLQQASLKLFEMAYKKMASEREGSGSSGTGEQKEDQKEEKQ

[11] = target: HARS2 (Homo sapiens, UniProt P49590); assay: TPP-TR in HAZV-infected SW13 cells; conditions: read-out: ΔTm of HARS2
[12] = test system: CoV 229E; assay: CoV 229E titer in Huh7 cells, end-point dilution assay; assay type: cell-based, Coronavirus 229E; conditions: MOI 5, 10 µM, 24 h
[13] = target: T3, DNAJC3; assay: 2D-TPP in U87 cells
[14] = target: T6, HSPA2 (Homo sapiens, UniProt P54652); assay: 2D-TPP in U87 cells; assay type: binding; conditions: 1.5 h, destabilized, read-out: pEC50 of protein destabilization, HSPA2 (converted)
T6 construct: endogenous in cells; host or cells: U87 cells
T6 sequence (P54652 whole entry): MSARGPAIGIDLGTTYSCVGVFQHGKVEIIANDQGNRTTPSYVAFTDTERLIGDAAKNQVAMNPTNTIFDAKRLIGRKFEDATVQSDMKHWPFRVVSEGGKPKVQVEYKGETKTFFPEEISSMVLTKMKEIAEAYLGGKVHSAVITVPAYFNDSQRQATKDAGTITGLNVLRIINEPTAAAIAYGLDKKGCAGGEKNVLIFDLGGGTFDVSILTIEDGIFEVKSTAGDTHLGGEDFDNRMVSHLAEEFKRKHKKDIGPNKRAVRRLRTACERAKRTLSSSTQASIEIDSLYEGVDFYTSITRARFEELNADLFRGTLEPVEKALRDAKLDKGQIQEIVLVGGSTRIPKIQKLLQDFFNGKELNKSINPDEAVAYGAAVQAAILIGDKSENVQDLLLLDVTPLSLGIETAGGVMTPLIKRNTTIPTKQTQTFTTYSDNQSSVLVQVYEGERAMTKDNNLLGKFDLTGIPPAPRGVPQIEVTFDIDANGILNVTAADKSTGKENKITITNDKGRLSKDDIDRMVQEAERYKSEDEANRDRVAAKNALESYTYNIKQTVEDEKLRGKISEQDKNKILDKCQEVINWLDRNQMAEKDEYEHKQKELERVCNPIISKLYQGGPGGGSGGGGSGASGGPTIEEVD

[15] = target: EDEM3 (Homo sapiens, UniProt Q9BZQ6); assay: 2D-TPP in U87 cells; assay type: binding; design: endogenous in cells; host or cells: U87 cells; conditions: 1.5 h, stabilized, read-out: pEC50 of protein stabilization, EDEM3 (converted)
Chain of EDEM3 (Q9BZQ6 42-932): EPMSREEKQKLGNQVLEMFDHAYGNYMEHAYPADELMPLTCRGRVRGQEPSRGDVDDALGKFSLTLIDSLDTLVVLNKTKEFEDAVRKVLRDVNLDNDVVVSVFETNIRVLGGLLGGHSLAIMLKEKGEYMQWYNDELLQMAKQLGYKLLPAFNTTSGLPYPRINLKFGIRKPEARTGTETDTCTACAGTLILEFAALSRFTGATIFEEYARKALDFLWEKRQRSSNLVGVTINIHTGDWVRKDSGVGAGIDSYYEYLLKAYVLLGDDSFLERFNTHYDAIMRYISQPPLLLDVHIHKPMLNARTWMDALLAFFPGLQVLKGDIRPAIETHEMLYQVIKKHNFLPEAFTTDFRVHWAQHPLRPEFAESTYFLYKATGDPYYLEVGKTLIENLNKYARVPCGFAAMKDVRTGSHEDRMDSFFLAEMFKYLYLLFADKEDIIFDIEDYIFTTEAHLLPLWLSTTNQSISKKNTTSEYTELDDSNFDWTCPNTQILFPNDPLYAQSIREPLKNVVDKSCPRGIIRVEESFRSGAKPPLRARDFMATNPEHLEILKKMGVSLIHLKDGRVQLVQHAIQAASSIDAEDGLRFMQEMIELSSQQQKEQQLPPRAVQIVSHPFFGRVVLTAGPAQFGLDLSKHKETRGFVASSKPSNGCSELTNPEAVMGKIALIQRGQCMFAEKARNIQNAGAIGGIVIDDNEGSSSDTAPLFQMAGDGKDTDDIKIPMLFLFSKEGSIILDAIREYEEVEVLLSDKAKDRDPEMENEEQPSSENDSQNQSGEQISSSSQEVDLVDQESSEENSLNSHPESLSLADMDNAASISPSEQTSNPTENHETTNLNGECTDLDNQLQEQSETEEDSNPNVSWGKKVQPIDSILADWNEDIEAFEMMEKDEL

[16] = target: T7, HSPA8 (Homo sapiens, UniProt P11142); assay: 2D-TPP in U87 cells; assay type: binding; conditions: 1.5 h, destabilized, read-out: pEC50 of protein destabilization, HSPA8 (converted)
T7 construct: endogenous in cells; host or cells: U87 cells
T7 sequence (P11142 whole entry): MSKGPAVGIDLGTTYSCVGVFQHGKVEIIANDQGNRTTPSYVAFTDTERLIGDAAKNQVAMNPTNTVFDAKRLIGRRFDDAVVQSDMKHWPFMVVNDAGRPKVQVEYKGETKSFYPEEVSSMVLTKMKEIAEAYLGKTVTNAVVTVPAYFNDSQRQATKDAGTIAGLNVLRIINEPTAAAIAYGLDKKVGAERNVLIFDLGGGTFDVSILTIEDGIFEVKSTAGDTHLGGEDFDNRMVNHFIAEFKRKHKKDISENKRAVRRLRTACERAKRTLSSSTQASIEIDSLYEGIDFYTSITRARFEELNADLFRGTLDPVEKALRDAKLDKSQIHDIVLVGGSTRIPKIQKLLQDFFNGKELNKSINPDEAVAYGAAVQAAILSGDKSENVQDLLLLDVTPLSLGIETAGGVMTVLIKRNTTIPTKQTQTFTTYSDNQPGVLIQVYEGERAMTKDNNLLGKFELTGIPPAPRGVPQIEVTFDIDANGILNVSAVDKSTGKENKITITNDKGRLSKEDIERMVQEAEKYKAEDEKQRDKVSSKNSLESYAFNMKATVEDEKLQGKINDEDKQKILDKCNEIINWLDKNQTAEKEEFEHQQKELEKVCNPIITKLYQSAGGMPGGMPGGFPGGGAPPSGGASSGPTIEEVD

`CCOC(=O)c1cnn(-c2cccc3c2[nH]c(=O)n3C2CCN(C(=O)Nc3ccc(I)cc3)CC2)c1` [TH6744, ethyl 1-(1-(1-((4-iodophenyl)carbamoyl)piperidin-4-yl)-2-oxo-2,3-dihydro-1H-benzo[d]imidazol-4-yl)-1H-pyrazole-4-carboxylate] was tested, and the “thermal stability change of DNAJB11” value ([1]; 20 μM, 4 h) was “stabilized”, the ΔTm at 20 µM ([1]; read-out: ΔTm of DNAJB11) was 13.6 °C and the EC50 [2] was 3.98 µM. It also gave an IC50 ([3]; SW13, 24 h, read-out: Antiviral on titer (µM) IC50 [µM]) of 2.9 µM, an EC50 ([3]; SW13, read-out: EC50 Viral titer) of 2.9 µM and an inhibition at 10 µM ([3]; Vero, 24 h, read-out: Viral inhibition on titer (%)) of 90%. The “thermal stability change of DNAJC3” value [4] was “stabilized”, the pec50 ([5]; protein A0FGR8 (ESYT2), temperature 54, Set2) was 5.517 and the norm_rel_fc_protein_1_unmodified ([5]; protein A0FGR8 (ESYT2), temperature 54, dose 1, Set2) was 0.9139. The norm_rel_fc_protein_3_unmodified ([5]; protein A0FGR8 (ESYT2), temperature 54, dose 3, Set2) was 0.7618, the norm_rel_fc_protein_10_unmodified ([5]; protein A0FGR8 (ESYT2), temperature 54, dose 10, Set2) was 0.587 and the norm_rel_fc_protein_30_unmodified ([5]; protein A0FGR8 (ESYT2), temperature 54, dose 30, Set2) was 0.5111. The pec50 ([5]; protein A0FGR8 (ESYT2), temperature 57, Set2) was 5.71, the norm_rel_fc_protein_1_unmodified ([5]; protein A0FGR8 (ESYT2), temperature 57, dose 1, Set2) was 0.8819 and the norm_rel_fc_protein_3_unmodified ([5]; protein A0FGR8 (ESYT2), temperature 57, dose 3, Set2) was 0.7127. It also gave a norm_rel_fc_protein_10_unmodified ([5]; protein A0FGR8 (ESYT2), temperature 57, dose 10, Set2) of 0.531, a norm_rel_fc_protein_30_unmodified ([5]; protein A0FGR8 (ESYT2), temperature 57, dose 30, Set2) of 0.5493 and a pec50 ([5]; protein A0FGR8-2 (ESYT2), temperature 54, Set2) of 5.517. For the same compound, the norm_rel_fc_protein_1_unmodified ([5]; protein A0FGR8-2 (ESYT2), temperature 54, dose 1, Set2) was 0.9139, the norm_rel_fc_protein_3_unmodified ([5]; protein A0FGR8-2 (ESYT2), temperature 54, dose 3, Set2) was 0.7618 and the norm_rel_fc_protein_10_unmodified ([5]; protein A0FGR8-2 (ESYT2), temperature 54, dose 10, Set2) was 0.587. The norm_rel_fc_protein_30_unmodified ([5]; protein A0FGR8-2 (ESYT2), temperature 54, dose 30, Set2) was 0.5111, the “binding to OGG1 (CETSA, Western blotting)” value ([6]; SW13 cells, 20 μM) was “binding to its known target OGG1” and the “binding to OGG1 (isothermal dose-response CETSA at 47 °C, Western blotting)” value ([6]; U87 cells) was “binding to its known target OGG1 in U87 cells”. The IC50 ([7]; read-out: Antiviral on primary infection IC50 [µM]) was 10.9 µM, the EC50 ([7]; read-out: EC50 Infected cells (primary infection)) was 10.9 µM and the inhibition at 10 µM ([7]; read-out: Viral inhibition on primary infection (%)) was 85%. For the same compound, the EC50 [8] was 37.4 µM, the EC50 [9] was 3.16 µM and the “thermal stability change of HSPA9” value [10] was “destabilized”. For the same compound, the ΔTm at 20 µM [11] was -9.2 °C, the “reduction of CoV 229E titer” value [12] was 95% and the EC50 [13] was 3.16 µM. For the same compound, the EC50 [14] was 3.16 µM, the EC50 [15] was 1 µM and the EC50 [16] was 5.01 µM.
